Earlier results, collected in patent publication US20220095612A1, “MICRONUTRIENT COMPOSITIONS AND SYSTEMS AND METHODS OF USING SAME” (Nanochem Solutions, Inc., priority 2020, published 2022).

- pH at which the alpha carboxyl deprotonates (alpha carboxyl group): about 2.09
- pH at which the carboxyl side group deprotonates (carboxyl side group): about 3.86
SMILES: N[C@@H](CC(=O)O)C(=O)O [L-aspartic acid]
